# Article PMC12658114, “Pharmacologic inhibition of PCBP2 biomolecular condensates relieves Alzheimer’s disease” (Nature Communications, 2025)
# Key:
# Experiment in all cases: biotin probe pull-down on streptavidin beads, Western blot
# Assay type in all cases: biochemical
# Details in all cases: lysate of transfected SH-SY5Y cells; labelled compound
# [1] = target: T1, (Homo sapiens, UniProt Q8N201, R1404A)
# T1 construct: gene INTS1; full-length cDNA (synthesized) in pcDNA3.1(+), C-terminal 3xFLAG, transiently expressed in SH-SY5Y cells, cell lysate
# T1 sequence (Q8N201 whole entry R1404A): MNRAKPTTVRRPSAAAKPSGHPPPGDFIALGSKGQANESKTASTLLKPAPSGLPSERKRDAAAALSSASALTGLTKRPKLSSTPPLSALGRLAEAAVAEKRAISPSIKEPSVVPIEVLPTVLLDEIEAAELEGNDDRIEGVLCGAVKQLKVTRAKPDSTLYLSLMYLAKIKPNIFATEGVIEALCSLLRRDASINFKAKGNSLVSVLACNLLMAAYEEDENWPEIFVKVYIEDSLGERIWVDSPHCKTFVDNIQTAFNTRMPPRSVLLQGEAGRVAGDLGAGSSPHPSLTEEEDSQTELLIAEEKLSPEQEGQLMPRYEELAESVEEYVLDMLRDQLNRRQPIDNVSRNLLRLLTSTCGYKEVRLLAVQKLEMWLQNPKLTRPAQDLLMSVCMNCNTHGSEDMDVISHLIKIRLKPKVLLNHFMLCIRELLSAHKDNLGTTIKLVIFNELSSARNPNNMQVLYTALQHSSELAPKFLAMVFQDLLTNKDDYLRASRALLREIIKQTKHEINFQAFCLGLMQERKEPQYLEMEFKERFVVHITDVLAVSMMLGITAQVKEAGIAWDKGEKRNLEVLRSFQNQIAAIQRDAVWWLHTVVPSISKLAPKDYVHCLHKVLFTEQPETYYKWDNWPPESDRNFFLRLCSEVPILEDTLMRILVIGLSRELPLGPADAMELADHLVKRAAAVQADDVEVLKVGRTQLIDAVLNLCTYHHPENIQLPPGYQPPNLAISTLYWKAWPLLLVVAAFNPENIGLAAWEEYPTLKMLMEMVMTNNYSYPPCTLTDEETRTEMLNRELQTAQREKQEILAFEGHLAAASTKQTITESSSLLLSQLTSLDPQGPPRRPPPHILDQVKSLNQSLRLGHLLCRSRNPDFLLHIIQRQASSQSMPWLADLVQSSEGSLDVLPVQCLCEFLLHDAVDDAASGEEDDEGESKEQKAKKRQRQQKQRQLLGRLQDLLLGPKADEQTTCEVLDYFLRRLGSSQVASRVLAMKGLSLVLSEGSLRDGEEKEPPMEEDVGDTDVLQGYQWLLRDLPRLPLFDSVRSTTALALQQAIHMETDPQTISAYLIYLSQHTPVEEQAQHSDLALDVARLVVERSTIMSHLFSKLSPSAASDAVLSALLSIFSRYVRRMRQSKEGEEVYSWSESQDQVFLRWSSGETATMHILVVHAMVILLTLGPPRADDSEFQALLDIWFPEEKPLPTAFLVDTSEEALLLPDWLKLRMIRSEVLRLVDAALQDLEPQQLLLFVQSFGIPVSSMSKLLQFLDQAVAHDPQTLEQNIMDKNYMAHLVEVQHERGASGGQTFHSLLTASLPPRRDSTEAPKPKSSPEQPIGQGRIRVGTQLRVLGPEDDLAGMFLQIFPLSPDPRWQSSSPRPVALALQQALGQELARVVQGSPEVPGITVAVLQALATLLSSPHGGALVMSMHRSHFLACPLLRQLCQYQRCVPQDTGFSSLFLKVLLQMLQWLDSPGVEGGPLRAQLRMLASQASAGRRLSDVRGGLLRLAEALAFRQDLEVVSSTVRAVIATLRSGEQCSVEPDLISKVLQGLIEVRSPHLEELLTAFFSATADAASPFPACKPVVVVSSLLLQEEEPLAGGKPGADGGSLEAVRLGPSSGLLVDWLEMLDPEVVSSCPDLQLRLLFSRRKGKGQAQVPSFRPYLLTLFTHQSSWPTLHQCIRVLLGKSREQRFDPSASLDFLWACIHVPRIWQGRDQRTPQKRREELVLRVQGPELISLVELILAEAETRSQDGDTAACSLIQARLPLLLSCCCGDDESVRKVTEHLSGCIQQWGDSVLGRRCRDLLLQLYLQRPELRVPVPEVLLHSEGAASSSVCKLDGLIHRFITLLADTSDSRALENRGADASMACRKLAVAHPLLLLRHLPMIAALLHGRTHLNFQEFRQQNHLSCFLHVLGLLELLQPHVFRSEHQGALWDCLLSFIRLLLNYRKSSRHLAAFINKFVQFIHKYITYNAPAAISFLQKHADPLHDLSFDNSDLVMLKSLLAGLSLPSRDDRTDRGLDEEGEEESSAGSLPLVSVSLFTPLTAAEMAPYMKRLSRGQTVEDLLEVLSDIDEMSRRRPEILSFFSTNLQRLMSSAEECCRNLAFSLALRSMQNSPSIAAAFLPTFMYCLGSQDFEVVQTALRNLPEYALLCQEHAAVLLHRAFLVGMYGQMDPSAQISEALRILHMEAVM
# [2] = target: T2, (Homo sapiens, UniProt Q8N201, R1404L)
# T2 construct: gene INTS1; full-length cDNA (synthesized) in pcDNA3.1(+), C-terminal 3xFLAG, transiently expressed in SH-SY5Y cells, cell lysate
# T2 sequence (Q8N201 whole entry R1404L): as the sequence (Q8N201 whole entry R1404A) above, with A1404L counted along it
# [3] = target: T3, flag-tagged wild type INTS1 (INTS1-WT-flag) (Homo sapiens, UniProt Q8N201)
# T3 construct: full-length cDNA (synthesized) in pcDNA3.1(+), C-terminal 3xFLAG, transiently expressed in SH-SY5Y cells, cell lysate
# T3 sequence (Q8N201 whole entry): as the sequence (Q8N201 whole entry R1404A) above, with A1404R counted along it
# [4] = target: T4, flag-tagged INTS1 (Homo sapiens, UniProt Q8N201, R1404K)
# T4 construct: full-length cDNA (synthesized) in pcDNA3.1(+), C-terminal 3xFLAG, transiently expressed in SH-SY5Y cells, cell lysate
# T4 sequence (Q8N201 whole entry R1404K): as the sequence (Q8N201 whole entry R1404A) above, with A1404K counted along it
compound,measurement,setting,value
"N#Cc1c(NC(=O)CN2CCN(C(=O)CCCC[C@H]3SC[C@@H]4NC(=O)N[C@@H]43)CC2)sc2c1CCCC2 [CN-0928-biotin, N-(3-cyano-4,5,6,7-tetrahydrobenzo[b]thiophen-2-yl)-2-(4-(5-((3aS,4R,6aR)-2-oxohexahydro-1H-thieno[3,4-d]imidazol-4-yl)pentanoyl)piperazin-1-yl)acetamide]",pulldown,[1],"(R1404A, R1404L, and R1404K) prevented the binding of CN-0928-biotin to flag-labeled INTS1"
same,pulldown,[2],"(R1404A, R1404L, and R1404K) prevented the binding of CN-0928-biotin to flag-labeled INTS1"
same,"biotin probe pull-down on streptavidin beads, Western blot",[3],CN-0928-biotin pulldown of flag-tagged wild type (INTS1-WT-flag)
same,pulldown,[4],"(R1404A, R1404L, and R1404K) prevented the binding of CN-0928-biotin to flag-labeled INTS1"
